Measured values reported in ChEMBL document CHEMBL3045943, “Novel N-aryl(alkaryl)-2-[(3-R-2-oxo-2H-[1,2,4]triazino[2,3-c]quinazoline-6-yl)thio]acetamides: synthesis, cytotoxicity, anticancer activity, COMPARE analysis and docking” (2013).

Experiments:
Format in all cases: functional
[1] = test system: SNB-19; experiment: Cytotoxicity against Homo sapiens (human) SNB19 cells assessed as cell growth at 10 uM after 48 hr by SRB assay relative to control; conditions: SNB-19, 48 h, read-out: Activity
[2] = test system: SNB-75; experiment: Cytotoxicity against Homo sapiens (human) SNB75 cells assessed as cell growth at 10 uM after 48 hr by SRB assay relative to control; conditions: SNB-75, 48 h, read-out: Activity
[3] = test system: Photobacterium leiognathi; experiment: Growth inhibition of Photobacterium leiognathi Sh1 assessed as bio-luminescence at 0.1 mg/ml after 16 to 18 hr by chronic action test relative to control; parameters: scale not given: the % may be the effect or the level left
[4] = test system: Photobacterium leiognathi; experiment: Growth inhibition of Photobacterium leiognathi Sh1 assessed as bio-luminescence at 0.25 mg/ml after 16 to 18 hr by chronic action test relative to control; parameters: scale not given: the % may be the effect or the level left
[5] = test system: Photobacterium leiognathi; experiment: Growth inhibition of Photobacterium leiognathi Sh1 assessed as bio-luminescence at 0.1 mg/ml after 10 min by acute action test relative to control; parameters: scale not given: the % may be the effect or the level left
[6] = test system: Photobacterium leiognathi; experiment: Growth inhibition of Photobacterium leiognathi Sh1 assessed as bio-luminescence at 0.25 mg/ml after 10 min by acute action test relative to control; parameters: scale not given: the % may be the effect or the level left
[7] = test system: U-251; experiment: Cytotoxicity against Homo sapiens (human) U251 cells assessed as cell growth at 10 uM after 48 hr by SRB assay relative to control; conditions: U-251, 48 h, read-out: Activity
[8] = test system: Photobacterium leiognathi; experiment: Growth inhibition of Photobacterium leiognathi Sh1 assessed as bio-luminescence at 0.025 mg/ml after 16 to 18 hr by chronic action test relative to control; parameters: scale not given: the % may be the effect or the level left
[9] = test system: Photobacterium leiognathi; experiment: Growth inhibition of Photobacterium leiognathi Sh1 assessed as bio-luminescence at 0.025 mg/ml after 10 min by acute action test relative to control; parameters: scale not given: the % may be the effect or the level left

## COc1ccc(-c2nn3c(SCC(=O)Nc4ccc(C)cc4)nc4ccccc4c3nc2=O)cc1
[1]
  growth at 10 µM: 59%
[2]
  growth at 10 µM: 55.9%
[3]
  Activity: 76.8%
[4]
  Activity: 27.3%
[5]
  Activity: 120%
[6]
  Activity: 146.7%
[7]
  growth at 10 µM: 24.4%
[8]
  Activity: 69.8%
[9]
  Activity: 112.5%
